# Measured values reported in patent US11306078B2, “Piperidine CXCR7 receptor modulators” (IDORSIA PHARMACEUTICALS LTD., priority 2016, dated 2022).
# Target: human chemokine receptor CXCR7 (Homo sapiens (Human), UniProt P25106)
# Assay: Tango CXCR7-bla U2OS beta-arrestin recruitment assay (beta-lactamase reporter, FRET), antagonism of CXCL12/SDF1-α;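 also: compounds preincubated 15 min before CXCL12 addition, then 22 h at 37 °C, FRET emission ratio read with CCF4-AM substrate after 2 h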
# Type: cell-based
# Conditions: antagonistic effect on CXCR7; Tango CXCR7-bla U2OS cells, CXCL12/SDF1-α at its EC80
# Chain of human chemokine receptor CXCR7 (P25106 whole entry): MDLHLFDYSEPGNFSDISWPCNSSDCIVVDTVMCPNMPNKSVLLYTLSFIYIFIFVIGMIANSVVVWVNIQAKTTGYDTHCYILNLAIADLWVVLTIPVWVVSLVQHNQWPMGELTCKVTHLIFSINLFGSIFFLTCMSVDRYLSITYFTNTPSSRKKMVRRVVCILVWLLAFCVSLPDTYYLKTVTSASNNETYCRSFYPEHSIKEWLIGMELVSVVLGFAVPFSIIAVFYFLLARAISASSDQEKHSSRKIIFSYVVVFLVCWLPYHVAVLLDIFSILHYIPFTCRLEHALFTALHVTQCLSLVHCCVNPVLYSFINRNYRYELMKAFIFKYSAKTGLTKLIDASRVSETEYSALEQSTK
row,IC50 [nM],Compound
1,501,CN(C)C(=O)[C@@H]1CN([C@@H]2CCCC[C@H]2O)CC[C@H]1NC(=O)c1cc(-c2ccc(F)cc2F)on1 [Example 2.048]
2,709,C[C@H]([C@@H](C)O)N1CC[C@@H](NC(=O)c2cc(-c3ccc(F)cc3F)on2)[C@H](C(=O)N(C)C)C1 [Example 2.049]
3,42,C[C@H]([C@@H](C)O)N1CC[C@@H](NC(=O)c2cc(-c3ccc(F)cc3F)on2)[C@H](C(=O)N(C)CCc2ccccc2)C1 [Example 2.051]
4,267,CN(CCc1ccccc1)C(=O)[C@@H]1CN(CCO)CC[C@H]1NC(=O)c1cc(-c2ccc(F)cc2F)on1 [Example 2.052]
5,26,C[C@@H](NC(=O)[C@@H]1CN([C@@H]2CCCC[C@H]2O)CC[C@H]1NC(=O)c1cc(-c2ccc(F)cc2F)on1)c1ccccn1 [Example 2.053]
6,138,C[C@H]([C@@H](C)O)N1CC[C@@H](NC(=O)c2cc(-c3ccc(F)cc3F)on2)[C@H](C(=O)N[C@H](C)c2ccccn2)C1 [Example 2.054]
7,347,CN(CCc1ccccc1)C(=O)[C@@H]1CNCC[C@H]1NC(=O)c1cc(-c2ccc(F)cc2F)on1 [Example 2.058]
8,41,O=C(N[C@H]1CCN(CC2CC2)C[C@@H]1C(=O)NC1(c2cccc[n+]2[O-])CC1)c1cc(-c2ccc(F)cc2F)on1 [Example 2.061]
9,23,O=C(NC1CCN(C2CCCC2)CC1C(=O)NC1(c2cccc[n+]2[O-])CC1)c1cc(-c2ccc(F)cc2F)on1 (centres unmarked) [Example 2.062]
10,298,O=C(N[C@@H]1CCN(C2CCCC2)C[C@H]1C(=O)NC1(c2cccc[n+]2[O-])CC1)c1cc(-c2ccc(F)cc2F)on1 [Example 2.062a]
11,14,O=C(N[C@H]1CCN(C2CCCC2)C[C@@H]1C(=O)NC1(c2cccc[n+]2[O-])CC1)c1cc(-c2ccc(F)cc2F)on1 [Example 2.062b]
12,219,O=C(N[C@H]1CCN(C2CCC2)C[C@@H]1C(=O)NC1(c2cccc[n+]2[O-])CC1)c1cc(-c2ccc(F)cc2F)on1 [Example 2.063]
13,84,N#CC1(NC(=O)[C@@H]2CN(C3CCCC3)CC[C@H]2NC(=O)c2cc(-c3ccc(F)cc3F)on2)CCC1 [Example 2.064]
14,1,O=C(N[C@H]1CCN(CC2CCCC2)C[C@@H]1C(=O)NC1(c2ncccn2)CC1)c1cc(-c2ccc(F)cc2F)on1 [Example 2.065]
15,18,O=C(N[C@H]1CCN(CC2(C(F)F)CC2)C[C@@H]1C(=O)NC1(c2ncccn2)CC1)c1cc(-c2ccc(F)cc2F)on1 [Example 2.067]
16,12,O=C(N[C@H]1CCN(Cc2ccc(F)cc2)C[C@@H]1C(=O)NC1(c2ncccn2)CC1)c1cc(-c2ccc(F)cc2F)on1 [Example 2.068]
17,6,CC(C)(C)CN1CC[C@H](NC(=O)c2cc(-c3ccc(F)cc3F)on2)[C@@H](C(=O)NC2(c3ncccn3)CC2)C1 [Example 2.069]
18,8,O=C(N[C@H]1CCN(Cc2ccccc2)C[C@@H]1C(=O)NC1(c2ncccn2)CC1)c1cc(-c2ccc(F)cc2F)on1 [Example 2.071]
19,71,CCN(C)C(=O)[C@@H]1CN(C2CCCC2)CC[C@H]1NC(=O)c1cc(-c2ccc(F)cc2F)on1 [Example 2.076]
20,112,CCN(C)C(=O)[C@@H]1CN(CC2CC2)CC[C@H]1NC(=O)c1cc(-c2ccc(F)cc2F)on1 [Example 2.077]
21,72,CN(CCc1ccccn1)C(=O)[C@@H]1CN(C2CCCC2)CC[C@H]1NC(=O)c1cc(-c2ccc(F)cc2F)on1 [Example 2.078]

row,IC50 [nM],Compound
1,38,CN(CCc1ccccn1)C(=O)[C@@H]1CN(CC2CC2)CC[C@H]1NC(=O)c1cc(-c2ccc(F)cc2F)on1 [Example 2.079]
2,118,CN(C)C(=O)[C@@H]1CN(Cc2ccccc2)CC[C@H]1NC(=O)c1cc(-c2ccc(F)cc2F)on1 [Example 2.081]
3,342,CN(C)C(=O)[C@@H]1CN(Cc2ccccc2Cl)CC[C@H]1NC(=O)c1cc(-c2ccc(F)cc2F)on1 [Example 2.082]
4,777,CN(C)C(=O)[C@@H]1CN(Cc2ccccc2F)CC[C@H]1NC(=O)c1cc(-c2ccc(F)cc2F)on1 [Example 2.083]
5,8,O=C(N[C@H]1CCN(CC2CC2(F)F)C[C@@H]1C(=O)NC1(c2ncccn2)CC1)c1cc(-c2ccc(F)cc2F)on1 (some centres unmarked) [Example 2.084]
6,179,CN(C)C(=O)[C@@H]1CN(Cc2ccn(C)c2)CC[C@H]1NC(=O)c1cc(-c2ccc(F)cc2F)on1 [Example 2.085]
7,62,O=C(N[C@H]1CCN(CC2CC2)C[C@@H]1C(=O)NC1(c2ccccn2)CC1)c1cn(-c2ccc(F)cc2F)nn1 [Example 2.091]
8,95,O=C(N[C@H]1CCN(C2CCCC2)C[C@@H]1C(=O)NC1(c2ccccn2)CC1)c1cn(-c2ccc(F)cc2F)nn1 [Example 2.092]
9,26,C=CCN1CC[C@H](NC(=O)c2cc(-c3ccc(F)cc3F)on2)[C@@H](C(=O)NC2(c3ncccn3)CC2)C1 [Example 2.093]
10,2,O=C(N[C@H]1CCN(C2CC3CC3C2)C[C@@H]1C(=O)NC1(c2ncccn2)CC1)c1cc(-c2ccc(F)cc2F)on1 (some centres unmarked) [Example 2.094]
11,634,O=C(N[C@H]1CCNC[C@@H]1C(=O)NC1(c2ncccn2)CC1)c1ncc(-c2ccc(F)cc2F)o1 [Example 2.096]
12,650,O=C(N[C@H]1CCN(C2CCC2)C[C@@H]1C(=O)NC1(c2ncccn2)CC1)c1ncc(-c2ccc(F)cc2F)o1 [Example 2.097]
13,94,O=C(N[C@H]1CCN(C2CCCC2)C[C@@H]1C(=O)NC1(c2ncccn2)CC1)c1ncc(-c2ccc(F)cc2F)o1 [Example 2.098]
14,343,CC(C)N1CC[C@H](NC(=O)c2ncc(-c3ccc(F)cc3F)o2)[C@@H](C(=O)NC2(c3ncccn3)CC2)C1 [Example 2.099]
15,29,O=C(N[C@H]1CCN(CC2CC(F)(F)C2)C[C@@H]1C(=O)NC1(c2ncccn2)CC1)c1cc(-c2ccc(F)cc2F)on1 [Example 2.101]
16,411,O=C(N[C@H]1CCN(C2CSC2)C[C@@H]1C(=O)NC1(c2ncccn2)CC1)c1cc(-c2ccc(F)cc2F)on1 [Example 2.102]
17,4,O=C(N[C@H]1CCN(C2CC3(CC3)C2)C[C@@H]1C(=O)NC1(c2ncccn2)CC1)c1cc(-c2ccc(F)cc2F)on1 [Example 2.103]
18,195,O=C(N[C@H]1CCNC[C@@H]1C(=O)NC1(c2ncccn2)CC1)c1nnc(-c2ccc(F)cc2F)s1 [Example 2.104]
19,60,O=C(N[C@H]1CCN(C2CCC2)C[C@@H]1C(=O)NC1(c2ncccn2)CC1)c1nnc(-c2ccc(F)cc2F)s1 [Example 2.105]
20,13,O=C(N[C@H]1CCN(CC2(F)CC2)C[C@@H]1C(=O)NC1(c2ncccn2)CC1)c1nnc(-c2ccc(F)cc2F)s1 [Example 2.106]
21,114,CCN1CC[C@H](NC(=O)c2nnc(-c3ccc(F)cc3F)s2)[C@@H](C(=O)NC2(c3ncccn3)CC2)C1 [Example 2.107]

row,IC50 [nM],Compound
1,69,O=C(N[C@@H]1CCN(C2CCCCC2)C[C@H]1C(=O)NC1(c2ccccn2)CC1)c1noc(-c2ccc(F)cc2F)n1 [Example 3.01]
2,133,"CC1(NC(=O)[C@H]2CN(C3CCCCC3)CC[C@@H]2NC(=O)c2cc(-c3ccc(F)cc3F)on2)CC1 [Example 4.001, (3S,4S)-1-Cyclohexyl-4-{[5-(2,4-difluoro-phenyl)-isoxazole-3-carbonyl]-amino}-piperidine-3-carboxylic Acid (1-methyl-cyclopropyl)-amide]"
3,60,COCC(C)(C)NC(=O)[C@H]1CN(C2CCCCC2)CC[C@@H]1NC(=O)c1cc(-c2ccc(F)cc2F)on1 [Example 4.002]
4,333,COCCC(C)(C)NC(=O)[C@H]1CN(C2CCCCC2)CC[C@@H]1NC(=O)c1cc(-c2ccc(F)cc2F)on1 [Example 4.003]
5,319,O=C(N[C@H]1CCN(C2CCCCC2)C[C@@H]1C(=O)NC1(c2ccc(F)cn2)CC1)c1cc(-c2ccc(F)cc2F)on1 [Example 4.004]
6,86,CC(NC(=O)[C@H]1CN(C2CCCC2)CC[C@@H]1NC(=O)c1cc(-c2ccc(F)cc2F)on1)c1ccon1 (some centres unmarked) [Example 4.04]
7,149,CC1(NC(=O)[C@H]2CN(C3CCCCC3)CC[C@@H]2NC(=O)c2cc(-c3ccc(F)cc3F)on2)CCC1 [Example 4.006]
8,52,CC(NC(=O)[C@H]1CN(C2CCCCC2)CC[C@@H]1NC(=O)c1cc(-c2ccc(F)cc2F)on1)c1ncon1 (some centres unmarked) [Example 4.007]
9,150,CC(NC(=O)[C@H]1CN(C2CCCCC2)CC[C@@H]1NC(=O)c1cc(-c2ccc(F)cc2F)on1)c1ccc(F)cn1 (some centres unmarked) [Example 4.008]
10,573,C[C@@H](NC(=O)[C@@H]1CN(C2CCCCC2)CC[C@H]1NC(=O)c1cc(-c2ccc(F)cc2F)on1)C1CCC1 [Example 4.009]
11,145,O=C(N[C@H]1CCN(C2CCCCC2)C[C@@H]1C(=O)NC(CO)c1ccccn1)c1cc(-c2ccc(F)cc2F)on1 (some centres unmarked) [Example 4.013]
12,363,C[C@@H](NC(=O)[C@H]1CN(C2CCCCC2)CC[C@@H]1NC(=O)c1cc(-c2ccc(F)cc2F)on1)C1CCC1 [Example 4.014]
13,783,CC(C)(C)NC(=O)[C@@H]1CN(C2CCCCC2)CC[C@H]1NC(=O)c1cc(-c2ccc(F)cc2F)on1 [Example 4.015]
14,463,CC1(NC(=O)[C@@H]2CN(C3CCCCC3)CC[C@H]2NC(=O)c2cc(-c3ccc(F)cc3F)on2)CCC1 [Example 4.016]
15,343,CC1(NC(=O)[C@@H]2CN(C3CCCCC3)CC[C@H]2NC(=O)c2cc(-c3ccc(F)cc3F)on2)CC1 [Example 4.018]
16,151,CC(C)(C#N)NC(=O)[C@@H]1CN(C2CCCCC2)CC[C@H]1NC(=O)c1cc(-c2ccc(F)cc2F)on1 [Example 4.019]
17,69,CC(NC(=O)[C@H]1CN(CC2CC2)CC[C@@H]1NC(=O)c1cc(-c2ccc(F)cc2F)on1)c1ccn[nH]1 (some centres unmarked) [Example 4.023]
18,56,C[C@@H](NC(=O)[C@H]1CN(CC2CC2)CC[C@@H]1NC(=O)c1cc(-c2ccc(F)cc2F)on1)c1cccnc1 [Example 4.024]
19,15,O=C(N[C@H]1CCN(C2CCCC2)C[C@@H]1C(=O)NC1(c2ccncc2)CC1)c1cc(-c2ccc(F)cc2F)on1 [Example 4.026]
20,8,O=C(N[C@H]1CCN(CC2CC2)C[C@@H]1C(=O)NC1(c2ccncc2)CC1)c1cc(-c2ccc(F)cc2F)on1 [Example 4.027]
